Experimental data published in publication PMC8122397, “Synthesis of New Triazolopyrazine Antimalarial Compounds” (Molecules, 2021).
Read-outs that look alike come from different tables or passages of the source.

What was measured:
[1] = tested on: Plasmodium falciparum 3D7 (chloroquine-sensitive strain); assay: In vitro anti-plasmodial image-based asexual assay, 3D7 strain; format: cell-based; settings: for IC50 / inhibition at 80 µM: 3D7 strain; for IC50: 72 h; for inhibition at 80 µM: top dose of 80 µM, read-out: Pf 3D7 inhibition at the top dose
Description: (§1) The semisynthesized/functionalized triazolopyrazine compounds and the scaffold triazolopyrazine precursors, compounds 1–18, were tested for their antimalarial activity against the 3D7 (chloroquine-sensitive strain) and Dd2 (chloroquine, pyrimethamine, and mefloquine resistant strain) P. falciparum. Where an accurate IC50 value could not be determined due to 100% growth inhibition and a plateau not being reached, but where ≥90% growth inhibition was attained at the top screening concentration, an estimated IC50 value was calculated.
(§2) Plsamodium falciparum 3D7 and Dd2 parasites were cultured in RPMI1640 (Life Technologies, Camarillo, CA, USA) supplemented with 2.5 mg/mL Albumax II, 5% AB human serum, 25 mM HEPES, and 0.37mM hypoxanthine. Ring stage parasites were treated with compounds following two rounds of sorbitol synchronization, as previously described. Artesunate and pyrimethamine were incorporated as controls. Following incubation of assay plates for 72 h at 37 °C, and 5% CO2 and 5% O2, parasites were stained with 2-(4-amidinophenyl)-1H-indole-6-carboxamidine (DAPI) and imaged using an Opera QEHS confocal imaging system (PerkinElmer, Waltham, MA, USA). Images were analyzed, as previously described, using Acapella spot detection software (PerkinElmer, Waltham, MA, USA).
(§3) Normalizing of raw data used the in-plate positive (5 μM puromycin 100% inhibition) and negative (0.4% DMSO–no inhibition) controls to obtain percent inhibition and then used to calculate IC50 values through a 4 parameter logistic curve fitting in GraphPad Prism v.6.

[2] = tested on: Plasmodium falciparum Dd2 (chloroquine, pyrimethamine, and mefloquine drug-resistant strain); assay: In vitro anti-plasmodial image-based asexual assay, Dd2 strain; format: cell-based; settings: for Dd2 potency compared to the 3D7 results, in words: Dd2 versus 3D7; for IC50 / inhibition at 80 µM: Plasmodium falciparum, Dd2 strain; for IC50: 72 h; for inhibition at 80 µM: top dose of 80 µM, read-out: Pf Dd2 inhibition at the top dose
Description: as §1, §2, §3

Pf 3D7 = settings: cited from earlier work
[3] = tested on: Plasmodium falciparum (Pf); set-up: method as in earlier work; settings: OSM master compounds' list; read-out: Pf activity IC50, previously reported OSM data; cited from earlier work
[4] = Plasmodium falciparum, 3D7, 72 h, read-out: Pf 3D7 IC50 ± SD
[5] = Plasmodium falciparum, 3D7, 72 h, controls, read-out: Pf 3D7 IC50 ± SD (controls)
[6] = controls, read-out: Pf Dd2 IC50 ± SD (controls)
[7] = estimated IC50 as only ~90% inhibition reached at the top dose of 80 µM, read-out: Pf 3D7 IC50 ± SD (estimated, footnote d)
[8] = Plasmodium falciparum, 3D7, 72 h, estimated IC50 as only ~90% inhibition reached at the top dose of 80 µM, read-out: Pf 3D7 IC50 ± SD (estimated, footnote d)
[9] = in vitro, read-out: IC50 (Pf 3D7), Figure 1

With `C[Si](C)(C)CCOc1cncc2nnc(-c3ccc(OC(F)F)cc3)n12` [Compound 5] the IC50 [1, 4] was 13.9 ± 0.87 µM, the “Dd2 potency compared to the 3D7 results, in words” value [2] was “large decreases in potency” and the melting point was 135 °C.
In the case of `FC1(F)CCC(c2nccn3c(-c4ccc(Cl)cc4)nnc23)CC1` [Compound 18, 3-(4-Chlorophenyl)-8-(4,4-difluorocyclohexyl)-[1,2,4]triazolo[4,3-a]pyrazine], the “antimalarial activity in words” value ([1]; 3D7) is reported as “limited activity”, the inhibition at 80 µM ([1]; Plasmodium falciparum) is reported as less than 41% and the melting point is reported as 203 to 205 °C.
With `C[C@H]1[C@H](OC(=O)CCC(=O)O)O[C@@H]2O[C@@]3(C)CC[C@H]4[C@H](C)CC[C@@H]1[C@@]24OO3` [Artesunate, reference compound] the IC50 [1, 5] was 0.00348 ± 0.00014 µM and the IC50 [2, 6] was 0.002 ± 0.0001 µM.
For `N#Cc1ccc(-c2nnc3cncc(Cl)n23)cc1` [Compound 9], the IC50 [1, 7] was 18.9 ± 0.66 µM, the IC50 [1, 8] was 18.9 µM and the IC50 ([2]; read-out: Pf Dd2 IC50 ± SD) was 25.9 ± 0.74 µM.
In the case of `COc1ccc(C[C@H](N)C(=O)N[C@H]2[C@@H](O)[C@H](n3cnc4c(N(C)C)ncnc43)O[C@@H]2CO)cc1` [Puromycin, reference compound], the IC50 [1, 5] is reported as 0.0953 ± 0.00145 µM and the IC50 [2, 6] is reported as 0.101 ± 0.0028 µM.
For `OCC(COc1cncc2nnc(-c3ccc(OC(F)F)cc3)n12)c1ccccc1` (stereo not shown) [OSM-LO-13], the IC50 (Pf 3D7; [9]) is listed as 0.279 µM.
In the case of `FC(F)(F)c1ncc(Cl)n2c(-c3ccc(Cl)cc3)nnc12` [Compound 14, 5-Chloro-3-(4-chlorophenyl)-8-(trifluoromethyl)-[1,2,4]triazolo[4,3-α]pyrazine], the IC50 [1, 4] is reported as 4.84 ± 0.13 µM and the IC50 ([2]; read-out: Pf Dd2 IC50 ± SD) is reported as 6.18 ± 0.09 µM.
For `Fc1ccc([C@@H](COc2cncc3nnc(-c4ccc(OC(F)F)cc4)n23)OC(F)F)cc1F` [OSM-S-377], the IC50 (Pf 3D7; [9]) is listed as 0.016 µM.
With `Cc1ncc(OCCc2ccccc2)n2c(-c3ccc(OC(F)F)cc3)nnc12` [Compound 13, 3-[4-(Difluoromethoxy)phenyl]-8-methyl-5-(2-phenylethoxy)-[1,2,4]triazolo[4,3-a]pyrazine] the “fold decrease in potency on methylation” value ([1]; 3D7, compared with compound 2) was 37 fold, the IC50 [1, 7] was 11 ± 0.56 µM and the IC50 [1, 8] was 11.1 µM. The “Dd2 potency compared to the 3D7 results, in words” value [2] was “slight increase in potency” and the IC50 ([2]; read-out: Pf Dd2 IC50 ± SD) was 8.2 ± 0.6 µM.
For `C[Si](C)(C)CCOc1nccn2c(-c3ccc(OC(F)F)cc3)nnc12` [Compound 6, 3-[4-(Difluoromethoxy)phenyl]-8-[2-(trimethylsilyl)ethoxy)-[1,2,4]triazolo[4,3-α]pyrazine], the inhibition at 80 µM ([1]; Plasmodium falciparum) was less than 41%.
Compound `Cc1ncc(Cl)n2c(-c3ccc(C#N)cc3)nnc12` [Compound 10, 4-(5-Chloro-8-methyl-1,2,4-triazolo[4,3-α]pyrazin-3-yl)benzonitrile] has an IC50 [1, 8] of 27.3 ± 0.82 µM and an IC50 ([2]; read-out: Pf Dd2 IC50 ± SD) of 38.2 ± 0.61 µM.
With `Cc1ncc(OCC(F)(F)F)n2c(-c3ccc(OC(F)F)cc3)nnc12` [Compound 12, 3-[4-(Difluoromethoxy)phenyl]-8-methyl-5-(2,2,2-trifluoroethoxy)-[1,2,4]triazolo[4,3-a]pyrazine] the “growth inhibition at the top screening concentration” value ([1]; 3D7, predicted IC50 value not calculated) was less than 90%, the “Dd2 potency compared to the 3D7 results, in words” value [2] was “large decreases in potency” and the inhibition at 80 µM [2] was less than 41%.
Compound `Oc1nccn2c(-c3ccc(OC(F)F)cc3)nnc12` [Compound 4, 3-[4-(Difluoromethoxy)phenyl]-[1,2,4]triazolo[4,3-α]pyrazin-8-ol] has an inhibition at 80 µM ([1]; Plasmodium falciparum) of less than 41%.
Work on `Clc1ccc(-c2nnc3cncc(Cl)n23)cc1` [Compound 7] yielded an IC50 [1, 4] of 12.6 µM and an IC50 ([2]; read-out: Pf Dd2 IC50 ± SD) of 14.3 ± 0.62 µM.
In the case of `FC(F)Oc1ccc(-c2nnc3cncc(OCC(F)(F)F)n23)cc1` [Compound 3, 3-[(4-Difluoromethoxy)phenyl]-5-(2,2,2,-trifluroethoxy)-[1,2,4]triazolo[4,3-α]pyrazine], the IC50 [3] is given as 10 µM, the IC50 ([1]; read-out: Pf 3D7 IC50 ± SD) is given as 16.6 ± 1.02 µM and the IC50 [1, 4] is given as 16.7 µM. For the same compound, the IC50 ([2]; read-out: Pf Dd2 IC50 ± SD) was 21.2 ± 5.41 µM and the melting point was 169 to 170 °C.
`CCc1nc(N)nc(N)c1-c1ccc(Cl)cc1` [Pyrimethamine, reference compound] showed an IC50 [1, 5] of 0.01208 ± 4e-05 µM and an inhibition at 80 µM [2] of less than 41%.
In the case of `OC(COc1cncc2nnc(-c3ccc(OC(F)F)cc3)n12)c1ccc(F)c(F)c1` (stereo not shown) [OSM-S-390], the IC50 (Pf 3D7; [9]) is given as 0.07 µM.
With `FC1(F)CCC(c2ncc(Cl)n3c(-c4ccc(Cl)cc4)nnc23)CC1` [Compound 17, 5-Chloro-3-(4-chlorophenyl)-8-(4,4-difluorocyclohexyl)-[1,2,4]triazolo[4,3-a]pyrazine] the “antimalarial activity in words” value ([1]; 3D7) was “limited activity”, the IC50 [1, 8] was 20.2 ± 2.86 µM and the “Dd2 potency compared to the 3D7 results, in words” value [2] was “large decreases in potency”. The inhibition at 80 µM [2] was less than 41%.
In the case of `Cc1ncc(Cl)n2c(-c3ccc(Cl)cc3)nnc12` [Compound 8, 5-Chloro-3-(4-chlorophenyl)-8-methyl-[1,2,4]triazolo[4,3-α]pyrazine], the IC50 [1, 8] is reported as 19.2 ± 0.28 µM and the IC50 ([2]; read-out: Pf Dd2 IC50 ± SD) is reported as 32.4 ± 1.44 µM.
In the case of `Cc1ncc(Cl)n2c(-c3ccc(OC(F)F)cc3)nnc12` [Compound 11, 5-Chloro-3-[(4-difluoromethoxy)phenyl]-8-methyl-[1,2,4]triazolo[4,3-α]pyrazine], the IC50 ([1]; read-out: Pf 3D7 IC50 ± SD) is reported as 12.5 ± 0.58 µM, the IC50 [1, 4] is reported as 12.5 µM and the “Dd2 potency compared to the 3D7 results, in words” value [2] is reported as “large decreases in potency”. It also gave an IC50 ([2]; read-out: Pf Dd2 IC50 ± SD) of 31.2 ± 0.82 µM.
For `FC(F)Oc1ccc(-c2nnc3cncc(OCCc4ccccc4)n23)cc1` [Compound 2, 3-[4-(Difluoromethoxy)phenyl]-5-(2-phenylethoxy)-[1,2,4]triazolo[4,3-α]pyrazine], the IC50 ([1]; read-out: Pf 3D7 IC50 ± SD) is listed as 0.31 ± 0.01 µM, the IC50 [1, 4] is listed as 0.3 µM and the IC50 (Pf 3D7; [9]) is listed as 0.3 µM. For the same compound, the IC50 (Pf 3D7; read-out: IC50 against Pf 3D7, previously reported) was 0.301 µM and the IC50 ([2]; read-out: Pf Dd2 IC50 ± SD) was 0.54 ± 0.02 µM.
With `CC(F)(F)c1nccn2c(-c3ccc(Cl)cc3)nnc12` [Compound 16, 3-(4-Chlorophenyl)-8-(1,1-difluoroethyl)-[1,2,4]triazolo[4,3-a]pyrazine] the IC50 [1, 4] was 6.4 ± 0.1 µM, the “Dd2 potency compared to the 3D7 results, in words” value [2] was “large decreases in potency” and the IC50 ([2]; read-out: Pf Dd2 IC50 ± SD) was 24.7 ± 0.15 µM.
Compound `FC(F)Oc1ccc(-c2nnc3cncc(Cl)n23)cc1` [Compound 1] has an IC50 [1, 7] of 16.8 ± 1.25 µM, an IC50 [1, 8] of 16.8 µM and an IC50 ([2]; read-out: Pf Dd2 IC50 ± SD) of 22.8 ± 13.7 µM.
In the case of `CC(F)(F)c1ncc(Cl)n2c(-c3ccc(Cl)cc3)nnc12` [Compound 15, 5-Chloro-3-(4-chlorophenyl)-8-(1,1-difluoroethyl)-[1,2,4]triazolo[4,3-a]pyrazine], the “fold improvement in potency compared to the parent scaffold” value ([1]; 3D7, compared with scaffold 7) is reported as 7.3 fold, the IC50 ([1]; read-out: Pf 3D7 IC50 ± SD) is reported as 1.72 ± 0.02 µM and the IC50 [1, 4] is reported as 1.7 µM. The IC50 ([2]; read-out: Pf Dd2 IC50 ± SD) was 2.58 ± 0.07 µM.
